Activity calls are given as the source filed them.
Experiments:
Paired box protein Pax-8 = Paired box protein Pax-8 (Homo sapiens, UniProt Q06710); assay: PAX8 transcriptional activity inhibition in RMG-I – RMG-I cells, luciferase, cherry-pick, dose response (AID 687027); format: functional, cell-based;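 further: luciferase reporter driven by Pax8 target thyroperoxidase promoter measured by SteadyGlo luminescence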
[1] = A549 cell cytotoxicity, dose response, cytotoxicity control, plate reader, cherry-pick, antagonist series (AID 743412); format: functional, cell-based
[2] = toxicity toward HepG2 liver cells – cell-based, plate reader, cherry-pick, antagonist series, cytotoxicity control, dose response (AID 743416); format: functional
[3] = blockers of bursicon-stimulated LGR2 cAMP reporter – cell-based, HEK293, CRE-luciferase reporter, cherry pick, set 2, dose response (AID 743343); format: functional;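 further: transfected cells were stimulated with diluted bursicon conditioned medium after compound addition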
[4] = blockade of melanocortin 4 receptor signaling – cell-based, plate reader, cherry pick, counter-screen for LGR2 antagonist project, dose response (AID 743444); format: functional;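 further: transfected HEK 293 cells stimulated with alpha-MSH peptide; potency of inhibitors of the alpha-MSH evoked signal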
[5] = OVCAR8 cell viability loss – plate reader, dry powder samples, PAX8 project, dose response (AID 743197); format: functional, cell-based; details: OVCAR-8
[6] = growth inhibition of yeast DHODH-expressing 3D7 parasites – SYBR Green, dry powder samples, dose response (AID 1159570); format: functional, cell-based;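 further: parasite growth measured after 72 hours of compound exposure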
[7] = toxicity to human HepG2 hepatoma cells – cell-based, plate reader, dry powder samples, cytotoxicity control, dose response (AID 1159569); format: functional;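 further: inhibitor potency with signal falling toward the positive control level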
[8] = P. falciparum Dd2 growth inhibitors, dose response, SYBR Green, cherry-picked samples (AID 1159567); format: functional, cell-based
[9] = Dd2 malaria parasite growth inhibition potency – SYBR Green, dry powder samples, dose response (AID 1159566); format: functional, cell-based;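 further: potency for growth inhibition with lower SYBR green DNA signal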
[10] = toxicity to human hepatoma HepG2 cells – cell-based, cherry-picked samples, cytotoxicity control, dose response (AID 1159577); format: functional
[11] = growth inhibition of PfATP4-mutant resistant parasites – NITD609-resistant line, SYBR Green, dry powder, dose response (AID 1159571); format: functional, cell-based;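 further: parasites synchronized at ring stage by sorbitol before testing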
INS1 = assay: INS-1E survival protection against cytokine death – cell-based, luminescence, retest, dose response (AID 449756); format: functional; details: Rattus norvegicus;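 further: cell death triggered by IL-1 beta plus TNF-alpha plus IFN-gamma mixture; protective hits raise ATP signal compared with cytokine alone wells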
[12] = viability loss in THP-1 monocytes – THP-1 cells, cytotoxicity control for Vif-APOBEC3G degradation inhibitor project, dose response (AID 1117359); format: functional; details: THP-1
Protein Tat = molecular target: T1, Protein Tat (Human immunodeficiency virus type 1 group M subtype B (isolate HXB2)(HIV-1), UniProt P04608); format: functional;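 further: tat binding to TAR RNA read out by fluorescence polarization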
T1 sequence (P04608 whole entry): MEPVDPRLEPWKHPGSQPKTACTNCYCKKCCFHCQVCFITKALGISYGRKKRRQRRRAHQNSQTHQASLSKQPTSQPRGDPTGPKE

[13] = Trypanosoma cruzi growth suppression in host cells – NIH3T3 host cells, beta-gal luminescence, confirmation (AID 2044); format: functional, cell-based;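 further: intracellular parasites grown in NIH/3T3 mouse fibroblasts as host cells; luminescent beta-galactosidase reporter signal from transgenic T. cruzi replicating inside host cells; inhibitors lower the luminescence signal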
[14] = NIH3T3 cell viability loss – ATP luminescence, mouse fibroblasts, counter-screen, dose response (AID 2010); format: functional, cell-based;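 further: cells exposed to compound for about 90 hours before reading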
[15] = Luminescence-based cell-based high throughput dose response assay to identify activators of the DAF-12 from the parasite S. stercoralis (ssDAF-12).; format: functional
[16] = molecular target: T2, Oxysterols receptor LXR-beta (Homo sapiens, UniProt P55055); assay: LXR agonists, Gal4 luciferase reporter, dose response, counter-screen for ssDAF-12 agonist project, cell-based, luminescence, HEK293, S. stercoralis campaign (AID 720737); format: functional; details: read-out: IC50 (the source's name)
T2 sequence (P55055 whole entry): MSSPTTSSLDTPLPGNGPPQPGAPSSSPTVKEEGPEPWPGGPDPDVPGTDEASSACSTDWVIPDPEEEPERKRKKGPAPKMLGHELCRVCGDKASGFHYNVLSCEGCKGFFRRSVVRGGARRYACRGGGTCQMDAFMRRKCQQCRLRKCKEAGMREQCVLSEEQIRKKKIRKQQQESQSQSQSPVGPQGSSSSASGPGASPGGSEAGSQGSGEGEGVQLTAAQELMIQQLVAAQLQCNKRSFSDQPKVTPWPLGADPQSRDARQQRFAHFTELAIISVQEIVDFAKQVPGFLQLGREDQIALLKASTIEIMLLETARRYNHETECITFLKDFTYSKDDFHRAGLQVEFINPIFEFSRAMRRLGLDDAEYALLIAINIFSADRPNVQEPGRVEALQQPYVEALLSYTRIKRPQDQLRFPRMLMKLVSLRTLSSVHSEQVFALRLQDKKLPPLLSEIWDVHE

Vero = assay: mammalian cell viability reduction – secondary assay, cytotoxicity control for West Nile virus antiviral project, dose response (AID 1650); format: functional; details: Chlorocebus sabaeus
[17] = Luminescence Cell-Based Dose Response HTS to Identify Inhibitors of 5'UTR Stem-Loop Driven Prion Protein mRNA Translation in H4 Neuroglioblastoma Cells. [Related pubchem assays: 1827 (Project Summary), 1813 (Primary HTS)]; format: functional
[18] = alpha-synuclein stem-loop luciferase translation blockers – H4 neuroglioma cells, luminescence, confirmation (AID 1988); format: functional, cell-based
Leucine aminopeptidase = molecular target: T3, Leucine aminopeptidase (Plasmodium falciparum 3D7, UniProt Q8IL11); assay: P. falciparum M17LAP inhibitors, primary screen, biochemical, fluorogenic H-Leu-NHMec substrate, 1536-well (AID 1619); format: functional
T3 sequence (Q8IL11 whole entry): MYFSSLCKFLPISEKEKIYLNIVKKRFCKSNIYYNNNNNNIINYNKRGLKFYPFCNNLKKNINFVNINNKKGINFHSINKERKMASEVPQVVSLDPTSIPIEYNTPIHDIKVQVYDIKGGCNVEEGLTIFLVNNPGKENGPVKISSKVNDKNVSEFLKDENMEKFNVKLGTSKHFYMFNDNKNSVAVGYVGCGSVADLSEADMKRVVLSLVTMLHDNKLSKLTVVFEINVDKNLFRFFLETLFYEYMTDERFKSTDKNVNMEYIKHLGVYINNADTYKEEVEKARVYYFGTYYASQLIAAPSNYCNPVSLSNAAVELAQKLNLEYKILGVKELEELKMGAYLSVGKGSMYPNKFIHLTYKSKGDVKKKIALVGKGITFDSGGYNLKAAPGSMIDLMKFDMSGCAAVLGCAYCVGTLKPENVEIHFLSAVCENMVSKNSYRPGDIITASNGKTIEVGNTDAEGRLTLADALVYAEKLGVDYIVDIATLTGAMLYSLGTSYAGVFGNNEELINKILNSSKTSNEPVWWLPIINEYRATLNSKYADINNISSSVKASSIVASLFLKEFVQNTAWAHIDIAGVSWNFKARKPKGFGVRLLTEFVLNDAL

Aspartyl aminopeptidase = molecular target: T4, Aspartyl aminopeptidase (Plasmodium falciparum 3D7, UniProt Q8I2J3); assay: Counterscreen for inhibitors of M1 and M17 aminopeptidases: QFRET-based biochemical high throughput dose response assay for inhibitors of the Plasmodium falciparum M18 Aspartyl Aminopeptidase (PFM18AAP). [Related PubChem assays: 1619 (Screening assay (M17LAP inhibitors).), 1445 (Screening assay (M1AAP inhibitors).)]
T4 sequence (Q8I2J3 whole entry): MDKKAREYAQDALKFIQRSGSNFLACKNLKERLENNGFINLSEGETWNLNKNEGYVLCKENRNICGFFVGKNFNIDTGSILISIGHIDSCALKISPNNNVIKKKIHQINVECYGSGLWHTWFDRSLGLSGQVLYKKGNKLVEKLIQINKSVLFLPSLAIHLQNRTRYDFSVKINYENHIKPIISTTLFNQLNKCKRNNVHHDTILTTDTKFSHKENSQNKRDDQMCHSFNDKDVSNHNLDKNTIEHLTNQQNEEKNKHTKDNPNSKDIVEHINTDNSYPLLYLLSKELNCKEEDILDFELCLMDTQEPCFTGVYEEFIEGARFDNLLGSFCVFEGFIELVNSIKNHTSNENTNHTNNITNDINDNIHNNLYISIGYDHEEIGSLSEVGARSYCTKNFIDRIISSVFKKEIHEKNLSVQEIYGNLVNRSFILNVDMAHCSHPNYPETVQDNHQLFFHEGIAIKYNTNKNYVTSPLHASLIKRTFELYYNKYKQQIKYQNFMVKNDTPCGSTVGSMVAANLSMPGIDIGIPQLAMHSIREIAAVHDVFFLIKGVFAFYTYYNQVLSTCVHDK

Procathepsin L = Procathepsin L (Homo sapiens, UniProt P07711); assay: CTSL1 protease inhibition – biochemical, QFRET, 1536-well, counter-screen for M1/M17 aminopeptidase inhibitor project, dose response (AID 2214)
[19] = molecular target: T5, Short transient receptor potential channel 4 (Mus musculus, UniProt Q9QUQ5); assay: block of DAMGO-driven TRPC4 calcium entry – cell-based, HEK293 TRPC4/mu-opioid, Fluo-4 calcium, dose response (AID 434942); format: functional;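 further: potency of inhibitors blocking the TRPC4 calcium response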
T5 sequence (Q9QUQ5 whole entry): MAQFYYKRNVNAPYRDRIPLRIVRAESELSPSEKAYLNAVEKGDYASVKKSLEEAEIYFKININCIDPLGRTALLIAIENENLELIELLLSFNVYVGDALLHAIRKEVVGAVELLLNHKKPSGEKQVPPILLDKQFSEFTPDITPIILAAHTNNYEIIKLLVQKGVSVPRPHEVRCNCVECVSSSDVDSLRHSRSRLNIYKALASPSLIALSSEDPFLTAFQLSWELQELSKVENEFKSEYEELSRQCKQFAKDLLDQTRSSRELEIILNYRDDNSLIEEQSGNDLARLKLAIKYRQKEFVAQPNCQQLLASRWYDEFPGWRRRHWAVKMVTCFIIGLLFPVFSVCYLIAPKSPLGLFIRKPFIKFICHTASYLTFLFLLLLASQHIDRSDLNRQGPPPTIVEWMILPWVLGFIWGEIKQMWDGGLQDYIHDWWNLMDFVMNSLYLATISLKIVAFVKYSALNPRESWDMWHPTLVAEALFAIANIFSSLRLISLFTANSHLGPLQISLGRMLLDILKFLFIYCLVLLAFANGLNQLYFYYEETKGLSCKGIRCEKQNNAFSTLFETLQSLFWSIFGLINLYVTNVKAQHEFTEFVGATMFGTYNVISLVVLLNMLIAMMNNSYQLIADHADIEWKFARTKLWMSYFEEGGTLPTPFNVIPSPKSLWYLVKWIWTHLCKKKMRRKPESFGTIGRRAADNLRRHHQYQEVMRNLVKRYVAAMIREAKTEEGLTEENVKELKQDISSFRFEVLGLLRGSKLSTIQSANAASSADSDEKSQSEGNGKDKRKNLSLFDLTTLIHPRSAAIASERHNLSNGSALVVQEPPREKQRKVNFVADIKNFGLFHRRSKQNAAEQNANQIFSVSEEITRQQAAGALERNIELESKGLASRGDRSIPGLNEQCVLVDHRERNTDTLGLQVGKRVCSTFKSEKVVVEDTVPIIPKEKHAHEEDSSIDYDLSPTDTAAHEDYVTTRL

Genome polyprotein = Genome polyprotein (dengue virus type 2, UniProt P29990); assay: flavivirus cap methylation enzyme inhibition – biochemical, confirmation dose response, primary screen (AID 588689); format: functional
Chain of Genome polyprotein (P29990 2492-3391 limits assumed): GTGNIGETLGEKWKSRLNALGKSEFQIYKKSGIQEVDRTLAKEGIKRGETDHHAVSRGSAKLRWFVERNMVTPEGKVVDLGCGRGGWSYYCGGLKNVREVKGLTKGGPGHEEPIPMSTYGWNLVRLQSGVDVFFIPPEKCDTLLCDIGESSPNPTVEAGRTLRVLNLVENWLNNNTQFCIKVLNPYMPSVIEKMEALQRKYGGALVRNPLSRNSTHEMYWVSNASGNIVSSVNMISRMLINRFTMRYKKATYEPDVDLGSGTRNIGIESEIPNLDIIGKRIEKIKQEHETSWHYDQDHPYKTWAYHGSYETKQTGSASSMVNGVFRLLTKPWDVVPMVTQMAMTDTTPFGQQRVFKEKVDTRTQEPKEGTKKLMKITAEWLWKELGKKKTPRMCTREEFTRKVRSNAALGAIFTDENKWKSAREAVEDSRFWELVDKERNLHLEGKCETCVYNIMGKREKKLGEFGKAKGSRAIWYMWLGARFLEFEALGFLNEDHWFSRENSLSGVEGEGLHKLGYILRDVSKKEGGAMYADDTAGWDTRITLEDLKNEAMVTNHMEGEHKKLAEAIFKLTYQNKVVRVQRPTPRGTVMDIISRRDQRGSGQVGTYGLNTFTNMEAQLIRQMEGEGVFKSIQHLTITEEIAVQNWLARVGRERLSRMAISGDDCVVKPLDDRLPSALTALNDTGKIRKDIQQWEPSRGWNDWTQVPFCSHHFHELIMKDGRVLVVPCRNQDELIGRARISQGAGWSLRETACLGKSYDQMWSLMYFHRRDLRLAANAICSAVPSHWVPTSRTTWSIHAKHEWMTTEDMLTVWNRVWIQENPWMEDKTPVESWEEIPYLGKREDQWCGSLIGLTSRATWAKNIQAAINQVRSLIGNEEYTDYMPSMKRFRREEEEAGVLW

Chain of Procathepsin L (P07711 whole entry): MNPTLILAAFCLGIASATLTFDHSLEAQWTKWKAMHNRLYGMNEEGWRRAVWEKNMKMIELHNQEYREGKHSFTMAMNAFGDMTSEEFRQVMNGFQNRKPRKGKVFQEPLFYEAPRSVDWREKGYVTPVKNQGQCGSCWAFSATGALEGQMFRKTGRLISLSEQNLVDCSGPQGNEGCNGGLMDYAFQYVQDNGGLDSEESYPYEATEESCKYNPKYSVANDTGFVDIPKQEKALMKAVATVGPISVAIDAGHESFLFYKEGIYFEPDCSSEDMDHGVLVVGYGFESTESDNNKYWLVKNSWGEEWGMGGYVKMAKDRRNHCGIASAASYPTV
Chain of Paired box protein Pax-8 (Q06710 whole entry): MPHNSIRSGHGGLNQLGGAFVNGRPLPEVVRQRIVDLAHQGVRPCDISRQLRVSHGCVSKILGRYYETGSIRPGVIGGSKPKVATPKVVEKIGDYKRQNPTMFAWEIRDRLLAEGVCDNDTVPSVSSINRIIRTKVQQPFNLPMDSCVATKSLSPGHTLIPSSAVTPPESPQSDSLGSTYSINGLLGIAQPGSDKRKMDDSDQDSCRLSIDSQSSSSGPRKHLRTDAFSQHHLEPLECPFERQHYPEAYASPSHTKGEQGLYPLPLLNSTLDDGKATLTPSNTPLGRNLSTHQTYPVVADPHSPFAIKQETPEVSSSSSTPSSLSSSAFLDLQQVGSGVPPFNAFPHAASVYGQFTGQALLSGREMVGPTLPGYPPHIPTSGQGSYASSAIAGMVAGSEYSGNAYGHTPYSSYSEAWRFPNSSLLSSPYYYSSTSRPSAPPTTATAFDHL

For `C[C@@H]1CN([C@H](C)CO)C(=O)c2c(c3ccccc3n2C)-c2ccccc2CO[C@@H]1CN(C)S(=O)(=O)c1ccc(C(F)(F)F)cc1`, the AC50 (Paired box protein Pax-8) was 5.24 µM (active), the AC50 [1] was 19.4 µM (active) and the AC50 [2] was 17.7 µM (active). For the same compound, the AC50 [3] was 25.9 µM (active), the AC50 [4] was 35.3 µM (active) and the AC50 [5] was > 70 µM (inactive). For the same compound, the AC50 [6] was 3.33 µM (active), the AC50 [7] was 15.1 µM (active) and the AC50 [8] was 2.41 µM (active). The AC50 [9] was 1.76 µM (active), the AC50 [10] was > 42 µM (inactive) and the AC50 [11] was 2.62 µM (active).
With `CCCOC(=O)/C(C(=N)NCc1ccccc1)=C(/O)OCCC` the AC50 (INS1) was 97 µM (active) and the CC50 [12] was > 40 µM (active).
With `COc1ccccc1/C=C(/CC(=O)NCc1ccccc1)c1nc2ccccc2s1` the IC50 (Protein Tat) was > 100 µM (active).
In the case of `O=C1OC(c2ccc(F)cc2)=C/C1=C\c1ccc([N+](=O)[O-])o1`, the EC50 [13] is reported as 0.501 µM (active), the EC50 [14] is reported as > 60 µM (not active) and the IC50 (Protein Tat) is reported as > 100 µM (active).
In the case of `CCOc1ccc(-c2noc(COC)n2)cc1OC`, the IC50 [15] is reported as > 67.5 µM (inactive) and the EC50 [16] is reported as > 67.5 µM (inactive).
In the case of `Cc1ccc(-c2ccc3c(c2)O[C@@H](CN(C)Cc2ccncc2)[C@H](C)CN([C@@H](C)CO)S3(=O)=O)cc1`, the AC50 [6] is reported as 2.23 µM (active), the AC50 [7] is reported as 24.4 µM (active) and the AC50 [8] is reported as 2.73 µM (active). The AC50 [9] was 2.2 µM (active), the AC50 [10] was > 39 µM (inactive) and the AC50 [11] was 2.19 µM (active).
In the case of `CCc1ccc(-c2nc(CN3CCC(C(=O)N4CCN(c5ccccc5)CC4)CC3)c(C)o2)cc1`, the CC50 (Vero) is reported as 16.3 µM (active).
In the case of `COc1cccc(C#Cc2ccc([C@@H]3[C@@H](CO)N(C(=O)C4CCCC4)[C@H]3C#N)cc2)c1`, the AC50 [8] is reported as 4.4 µM (active) and the AC50 [10] is reported as > 39 µM (inactive).
In the case of `COc1cccc(C(=O)Cn2c(=N)n(C)c3ccccc32)c1`, the EC50 [17] is reported as 17.7 µM (active), the EC50 [18] is reported as 6.57 µM (active) and the IC50 [15] is reported as > 67.5 µM (inactive). For the same compound, the EC50 [16] was > 67.5 µM (inactive).
With `CCOC(=O)c1c(-c2cccc(C)c2)csc1NC(=O)C1CC=CCC1C(=O)O` (centres undefined) the IC50 (Leucine aminopeptidase) was 5.96 µM (active), the IC50 (Aspartyl aminopeptidase) was > 73.5 µM (not active) and the IC50 (Procathepsin L) was > 59.6 µM (not active). For the same compound, the EC50 [19] was 7.5 µM (active) and the IC50 (Genome polyprotein) was 61 µM (active).
For `O=S(=O)(Nc1ccc2[nH]c(O)nc2c1)c1ccc(F)c(Cl)c1`, the CC50 [12] was > 40 µM (active).
In the case of `FC(F)(F)c1ccc(Oc2ccc(Cl)cc2Br)nc1`, the IC50 [15] is reported as > 67.5 µM (inactive) and the EC50 [16] is reported as > 67.5 µM (inactive).
With `Cc1cc(O)nc(SCC(=O)Nc2cccc(C(F)(F)F)c2)n1` the IC50 (Leucine aminopeptidase) was 7.15 µM (active), the IC50 (Aspartyl aminopeptidase) was > 73.5 µM (not active) and the IC50 (Procathepsin L) was > 59.6 µM (not active).

Source: ChEMBL document CHEMBL1201862, “PubChem BioAssay data set” (2004)
